What was measured:
[1] = test system: Cricetinae gen. sp.; assay: In vivo activity to reduce liver cholesterol esters (hamster) at 50 mpk; type: functional, Cricetulus griseus
[2] = biological target: T1, Sterol O-acyltransferase 1 (Rattus norvegicus) (UniProt O70536); assay: In vitro inhibitory activity against acyl-coenzyme A:cholesterol acyltransferase 1 from rat hepatic microsomes at 10 uM
T1 sequence (whole entry): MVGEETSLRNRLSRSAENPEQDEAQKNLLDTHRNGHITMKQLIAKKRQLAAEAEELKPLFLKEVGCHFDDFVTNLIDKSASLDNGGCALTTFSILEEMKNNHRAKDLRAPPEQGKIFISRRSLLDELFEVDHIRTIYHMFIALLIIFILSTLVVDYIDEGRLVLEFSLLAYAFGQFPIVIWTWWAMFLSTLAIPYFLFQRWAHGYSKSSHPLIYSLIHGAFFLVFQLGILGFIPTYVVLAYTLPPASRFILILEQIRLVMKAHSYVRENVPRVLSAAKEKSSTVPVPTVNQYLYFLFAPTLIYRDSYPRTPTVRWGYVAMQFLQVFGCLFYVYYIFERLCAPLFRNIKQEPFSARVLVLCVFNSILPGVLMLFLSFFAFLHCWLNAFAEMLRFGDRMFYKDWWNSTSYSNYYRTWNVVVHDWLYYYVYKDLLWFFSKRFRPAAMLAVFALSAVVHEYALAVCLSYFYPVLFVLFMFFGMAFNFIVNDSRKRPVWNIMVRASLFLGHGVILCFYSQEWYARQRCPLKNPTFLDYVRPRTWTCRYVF

[3] = biological target: T2, Sterol O-acyltransferase 1 (Rattus norvegicus, UniProt O70536); assay: In vitro inhibitory activity against acyl-coenzyme A:cholesterol acyltransferase 1 from rat hepatic microsomes.
T2 sequence (O70536 whole entry): T1 sequence (whole entry)

[4] = test system: Cricetinae gen. sp.; assay: In vivo activity to reduce liver cholesterol esters (hamster) at 5 mg/kg/day; type: functional, Cricetulus griseus
[5] = test system: Cricetinae gen. sp.; assay: In vivo activity to reduce liver cholesterol esters (hamster) at 1 mg/kg/day; type: functional, Cricetulus griseus
[6] = biological target: T2, Sterol O-acyltransferase 1; assay: (§1) In vitro inhibitory activity against Acyl coenzyme A:cholesterol acyltransferase 1 from rat hepatic microsomes at 10 uM
[7] = biological target: T1, Sterol O-acyltransferase 1 (Rattus norvegicus); assay: as §1

inhibition [2]	IC50 [3]	Compound	Reduction [1]	further results
–	–	COc1ccc([C@H]2CCc3ccc(OC)cc3[C@H]2NC(=O)C(c2ccccc2)c2ccccc2)cc1	0%	–
77%	1800 nM	O=C(N[C@@H]1c2ccccc2CC[C@@H]1c1cccc(O)c1)C(c1ccccc1)c1ccccc1	0%	–
98%	400 nM	COc1ccc2c(c1)[C@H](NC(=O)C(c1ccccc1)c1ccccc1)[C@@H](c1ccc(O)cc1)CC2	97%	–
–	–	O=C(N[C@@H]1c2ccccc2OC[C@@H]1c1ccc(O)cc1)C(c1ccccc1)c1ccccc1	0%	–
80%	3000 nM	O=C(N[C@@H]1CCCC[C@@H]1c1ccc(O)cc1)C(c1ccccc1)c1ccccc1	0%	–
–	–	COc1cccc([C@H]2CCc3ccccc3[C@@H]2NC(=O)C(c2ccccc2)c2ccccc2)c1	0%	–
–	–	Nc1ccc([C@H]2CCc3ccccc3[C@H]2NC(=O)C(c2ccccc2)c2ccccc2)cc1	57%	–
88%	–	COc1ccc(C(Cc2ccccc2)NC(=O)C(c2ccccc2)c2ccccc2)cc1 (stereo not given)	69%	–
95%	–	O=C(NC(Cc1ccccc1)c1ccc(O)cc1)C(c1ccccc1)c1ccccc1 (stereo not given)	69%	–
–	–	COc1cccc([C@H]2CCc3ccccc3[C@H]2NC(=O)C(c2ccccc2)c2ccccc2)c1	0%	–
–	–	O=C(NC(Cc1ccc(O)cc1)c1cccc(O)c1)C(c1ccccc1)c1ccccc1 (stereo not given)	0%	–
98%	700 nM	O=C(N[C@H]1c2ccccc2CC[C@@H]1c1cccc(O)c1)C(c1ccccc1)c1ccccc1	0%	–
77%	3000 nM	COc1ccc([C@H]2CCCC[C@H]2NC(=O)C(c2ccccc2)c2ccccc2)cc1	20%	–
–	–	O=C(N[C@@H]1c2cccc(O)c2CC[C@@H]1c1ccccc1)C(c1ccccc1)c1ccccc1	0%	–
92%	–	COc1ccc(CC(NC(=O)C(c2ccccc2)c2ccccc2)c2ccccc2)cc1 (stereo not given)	65%	–
87%	900 nM	O=C(N[C@@H]1c2ccc(O)cc2CC[C@@H]1c1ccccc1)C(c1ccccc1)c1ccccc1	45%	–
40%	–	COc1ccc(CC(NC(=O)C(c2ccccc2)c2ccccc2)c2ccc(OC)cc2)cc1 (stereo not given)	32%	–
–	–	COc1ccc([C@H]2CCc3ccccc3[C@@H]2NC(=O)C(c2ccccc2)c2ccccc2)cc1	0%	–
–	–	COc1ccc2c(c1)C(NC(=O)C(c1ccccc1)c1ccccc1)CCC2 (stereo not given)	0%	–
93%	700 nM	O=C(N[C@H]1c2ccccc2CC[C@@H]1c1ccc(O)cc1)C(c1ccccc1)c1ccccc1	58%	–
–	–	O=C(NC(Cc1ccccc1)c1cccc(O)c1)C(c1ccccc1)c1ccccc1 (stereo not given)	19%	–
–	–	O=C(N[C@H]1c2cccc(O)c2CC[C@@H]1c1ccccc1)C(c1ccccc1)c1ccccc1	0%	–

inhibition [2]	IC50 [3]	Compound	Reduction [1]	further results
99%	230 nM	O=C(N[C@H]1c2ccccc2C[C@@H]1c1ccc(O)cc1)C(c1ccccc1)c1ccccc1	52%	–
–	–	O=C(N[C@H]1c2ccccc2CCC[C@@H]1c1ccc(O)cc1)C(c1ccccc1)c1ccccc1	61%	–
94%	600 nM	O=C(N[C@H]1CCCC[C@@H]1c1ccc(O)cc1)C(c1ccccc1)c1ccccc1	0%	–
–	–	O=C(N[C@@H]1c2ccccc2CCC[C@@H]1c1ccc(O)cc1)C(c1ccccc1)c1ccccc1	0%	–
–	–	O=C(N[C@H]1c2ccccc2CC[C@@H]1c1ccccc1O)C(c1ccccc1)c1ccccc1	0%	–
–	–	COc1ccc([C@H]2CCc3ccccc3[C@H]2NC(=O)C(c2ccccc2)c2ccccc2)cc1	0%	–
–	–	O=C(N[C@H]1c2ccccc2C[C@H]1c1ccc(O)cc1)C(c1ccccc1)c1ccccc1	–	Reduction [4]: 0%; Reduction [5]: 0%; IC50 [6]: 13000 nM
–	–	O=C(NC1c2ccccc2CC1c1ccc(O)cc1)C(c1ccccc1)c1ccccc1 (racemic)	–	Reduction [4]: 63%; Reduction [5]: 27%; IC50 [6]: 100 nM
–	–	O=C(N[C@@H]1c2ccccc2CC[C@@H]1c1ccncc1)C(c1ccccc1)c1ccccc1	39%	–
99%	100 nM	O=C(N[C@@H]1c2ccccc2C[C@@H]1c1ccc(O)cc1)C(c1ccccc1)c1ccccc1	91%	Reduction [4]: 88%; Reduction [5]: 73%; IC50 [6]: 40 nM
94%	1300 nM	O=C(N[C@H]1c2cc(O)ccc2CC[C@@H]1c1ccccc1)C(c1ccccc1)c1ccccc1	78%	–
–	–	COc1ccccc1[C@H]1CCc2ccccc2[C@H]1NC(=O)C(c1ccccc1)c1ccccc1 (stereo in doubt; trans)	0%	–
–	–	O=C(N[C@@H]1c2cc(O)ccc2CC[C@@H]1c1ccc(O)cc1)C(c1ccccc1)c1ccccc1	0%	–
–	–	O=C(N[C@@H]1c2c(O)cccc2CC[C@@H]1c1ccccc1)C(c1ccccc1)c1ccccc1	20%	–
100%	100 nM	COc1ccc([C@H]2CCCC[C@@H]2NC(=O)C(c2ccccc2)c2ccccc2)cc1	0%	–
–	–	O=C(NC(Cc1ccc(O)cc1)c1ccc(O)cc1)C(c1ccccc1)c1ccccc1 (stereo not given)	40%	–
84%	2400 nM	O=C(N[C@@H]1c2cc(O)ccc2CC[C@@H]1c1ccccc1)C(c1ccccc1)c1ccccc1	38%	–
92%	900 nM	O=C(N[C@H]1c2ccc(O)cc2CC[C@@H]1c1ccccc1)C(c1ccccc1)c1ccccc1	0%	–
92%	–	O=C(NC(Cc1ccc(O)cc1)c1ccccc1)C(c1ccccc1)c1ccccc1 (stereo not given)	–	–
–	–	O=C(N[C@H]1c2ccccc2OC[C@@H]1c1ccc(O)cc1)C(c1ccccc1)c1ccccc1	0%	–
91%	350 nM	O=C(N[C@@H]1c2ccccc2CC[C@@H]1c1ccc(O)cc1)C(c1ccccc1)c1ccccc1	16%	–
–	–	O=C(NC1CCCc2ccccc21)C(c1ccccc1)c1ccccc1 (stereo not given)	–	inhibition [7]: 37%
